Assay results from ChEMBL document CHEMBL1157739, “5'-O-dephosphorylated 2',5'-oligoadenylate (2-5A) with 8-methyladenosine at the 2'-terminus activates human RNase L” (Bioorg Med Chem Lett, 2010).
Active and inactive are the calls of the source. The rule behind the calls is not given here.

Legend:
[1] = Stability assessed as half life; format: physicochemical
[2] = molecular target: T1, 2-5A-dependent ribonuclease (Homo sapiens, UniProt Q05823); assay: […] of human RNaseL ANK domain expressed in Escherichia coli assessed as 5' flurescein-r(C11U2C7)-3' RNA cleavage
T1 sequence (Q05823 whole entry): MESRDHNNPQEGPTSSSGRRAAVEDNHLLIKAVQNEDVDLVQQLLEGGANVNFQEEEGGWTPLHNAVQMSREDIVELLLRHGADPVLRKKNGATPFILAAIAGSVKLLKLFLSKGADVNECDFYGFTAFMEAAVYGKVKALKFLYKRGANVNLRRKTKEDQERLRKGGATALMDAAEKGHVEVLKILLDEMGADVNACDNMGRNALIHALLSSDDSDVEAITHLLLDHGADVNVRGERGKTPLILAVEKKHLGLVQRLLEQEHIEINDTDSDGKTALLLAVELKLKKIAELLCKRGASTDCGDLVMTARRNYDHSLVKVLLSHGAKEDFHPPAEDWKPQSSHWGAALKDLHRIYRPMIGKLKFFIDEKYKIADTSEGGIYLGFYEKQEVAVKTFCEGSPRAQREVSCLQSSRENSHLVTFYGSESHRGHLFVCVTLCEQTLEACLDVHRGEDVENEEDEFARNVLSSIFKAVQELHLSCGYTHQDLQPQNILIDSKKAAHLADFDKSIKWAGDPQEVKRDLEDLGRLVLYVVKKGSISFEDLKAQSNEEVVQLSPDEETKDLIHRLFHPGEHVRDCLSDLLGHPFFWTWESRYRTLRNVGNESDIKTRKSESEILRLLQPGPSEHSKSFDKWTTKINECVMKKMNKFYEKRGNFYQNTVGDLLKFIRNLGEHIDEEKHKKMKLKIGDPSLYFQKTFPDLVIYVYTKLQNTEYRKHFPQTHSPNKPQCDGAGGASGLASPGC

[3] = molecular target: T2, 2-5A-dependent ribonuclease (Homo sapiens) (UniProt Q05823); assay: […] of human RNaseL ANK domain expressed in Escherichia col assessed as 5' flurescein-r(C11U2C7)-3' RNA cleavage relative to control; set-up: concentration or dose not given beside the values
T2 sequence (whole entry): T1 sequence (Q05823 whole entry)

half-life [1] [min]	EC50 ([2]; read-out: EC50) [nM]	Activity [3]	EC50 [2]	SMILES
18	> 50	< 0.19%	–	Cc1nc2c(N)ncnc2n1[C@@H]1O[C@H](COP(=O)(O)O[C@@H]2[C@H](O)[C@@H](COP(=O)(O)O[C@@H]3[C@H](O)[C@@H](CO)O[C@H]3n3cnc4c(N)ncnc43)O[C@H]2n2cnc3c(N)ncnc32)[C@@H](O)[C@H]1OP(=O)(O)OC[C@H]1O[C@@H](n2cnc3c(N)ncnc32)[C@H](O)[C@@H]1O
18	–	inactive	Not Active	Nc1ncnc2c1ncn2[C@@H]1O[C@H](COP(=O)(O)O[C@@H]2[C@H](O)[C@@H](COP(=O)(O)O[C@@H]3[C@H](O)[C@@H](COP(=O)(O)O[C@@H]4[C@H](O)[C@@H](CO)O[C@H]4n4cnc5c(N)ncnc54)O[C@H]3n3cnc4c(N)ncnc43)O[C@H]2n2cnc3c(N)ncnc32)[C@@H](O)[C@H]1O
> 90	2.5	3.9%	–	Cc1nc2c(N)ncnc2n1[C@@H]1O[C@H](COP(=O)(O)O[C@@H]2[C@H](O)[C@@H](COP(=O)(O)O[C@@H]3[C@H](O)[C@@H](COP(=O)(O)O[C@@H]4[C@H](O)[C@@H](CO)O[C@H]4n4cnc5c(N)ncnc54)O[C@H]3n3cnc4c(N)ncnc43)O[C@H]2n2cnc3c(N)ncnc32)[C@@H](O)[C@H]1O
–	2.5	3.9%	–	Cc1nc2c(N)ncnc2n1[C@@H]1O[C@H](COP(=O)(O)O[C@@H]2[C@H](O)[C@@H](COP(=O)(O)O[C@@H]3[C@H](O)[C@@H](COP(=O)(O)O[C@@H]4[C@H](O)[C@@H](COP(=O)(O)O)O[C@H]4n4cnc5c(N)ncnc54)O[C@H]3n3cnc4c(N)ncnc43)O[C@H]2n2cnc3c(N)ncnc32)[C@@H](O)[C@H]1O
18	> 50	< 0.19%	–	Cc1nc2c(N)ncnc2n1[C@@H]1O[C@H](COP(=O)(O)O[C@@H]2[C@H](O)[C@@H](COP(=O)(O)O[C@@H]3[C@H](O)[C@@H](CO)O[C@H]3n3cnc4c(N)ncnc43)O[C@H]2n2cnc3c(N)ncnc32)[C@@H](O)[C@H]1O
14	9.7	1%	–	Nc1ncnc2c1ncn2[C@@H]1O[C@H](COP(=O)(O)O[C@@H]2[C@H](O)[C@@H](COP(=O)(O)O[C@@H]3[C@H](O)[C@@H](COP(=O)(O)O[C@@H]4[C@H](O)[C@@H](COP(=O)(O)O)O[C@H]4n4cnc5c(N)ncnc54)O[C@H]3n3cnc4c(N)ncnc43)O[C@H]2n2cnc3c(N)ncnc32)[C@@H](O)[C@H]1O
